Assay results from patent US8952024B2, “Herbicidal pyrimidone derivatives” (E I du Pont de Nemours and Company, priority 2009, dated 2015).

How the values were obtained:
Assay type in all cases: in vivo
[1] = system: johnsongrass (Sorghum halepense); experiment: Test B pre-/postemergence plant response; conditions: for Plant response rating, Johnsongrass: Postemergence
Method in brief: (§1)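 Ratings reflect visual comparison with untreated controls 13 to 15 days after application, from 0 (no effect) to 100 (complete control). Application was preemergence to seeded loam/sand soil or postemergence to 1- to 4-leaf plants, with compound in a non-phytotoxic, surfactant-containing solvent.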

[2] = system: cocklebur (Xanthium strumarium); experiment: Test B pre-/postemergence plant response; conditions: for Plant response rating, Cocklebur: Postemergence
Method in brief: as §1

[3] = system: giant foxtail (Setaria faberii); experiment: Test B pre-/postemergence plant response; conditions: for Plant response rating, Foxtail, Giant: Postemergence
Method in brief: as §1

[4] = system: blackgrass (Alopecurus myosuroides); experiment: Test B pre-/postemergence plant response; conditions: for Plant response rating, Blackgrass: Postemergence
Method in brief: as §1

soybean (Glycine max) = experiment: Test B pre-/postemergence plant response; conditions: for Plant response rating, Soybean: Postemergence
Method in brief: as §1

[5] = system: bermudagrass (Cynodon dactylon); experiment: Test B pre-/postemergence plant response; conditions: for Plant response rating, Bermudagrass: Postemergence
Method in brief: as §1

wild oat (Avena fatua) = experiment: Test B pre-/postemergence plant response; conditions: for Plant response rating, Oat, Wild: Postemergence
Method in brief: as §1

kochia (Kochia scoparia) = experiment: Test B pre-/postemergence plant response; conditions: for Plant response rating, Kochia: Postemergence
Method in brief: as §1

[6] = system: morningglory (Ipomoea coccinea); experiment: Test B pre-/postemergence plant response; conditions: for Plant response rating, Morningglory: Postemergence
Method in brief: as §1

corn (Zea mays) = experiment: Test B pre-/postemergence plant response; conditions: for Plant response rating, Corn: Postemergence
Method in brief: as §1

[7] = system: windgrass (Apera spica-venti); experiment: Test B postemergence plant response; conditions: for Plant response rating, Windgrass: Postemergence
Method in brief: (§2)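 Plants at the 1- to 4-leaf stage (2 to 18 cm tall), grown in pots of peat moss/vermiculite medium with wetting agent and starter nutrients, received postemergence applications of test chemicals. After 13 to 15 days in a greenhouse, injury was rated visually against untreated controls on a 0 (no effect) to 100 (complete control) scale.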

[8] = system: chickweed (Stellaria media); experiment: Test B postemergence plant response; conditions: for Plant response rating, Chickweed: Postemergence
Method in brief: as §2

[9] = system: canarygrass (Phalaris minor); experiment: Test B postemergence plant response; conditions: for Plant response rating, Canarygrass: Postemergence
Method in brief: as §2

[10] = system: winter barley (Hordeum vulgare); experiment: Test B postemergence plant response; conditions: for Plant response rating, Barley: Postemergence
Method in brief: as §2

[11] = 62 g ai/ha, postemergence, 0 is no effect, 100 is complete control, 13 to 15 days
[12] = 31 g ai/ha, 0 to 100 scale (0 no effect, 100 complete control)
[13] = 125 g ai/ha, scale 0 to 100 (0 no effect, 100 complete control)

O=C1CCCC(O)=C1C(=O)c1cnc(-c2ccccc2)n(C2CCCC2)c1=O [Compound 131]
90: Plant response rating, Chickweed [8, 13]
75: Foxtail, Giant plant response rating (0 to 100 scale) [3, 11] | Plant response rating, Foxtail, Giant [3, 12] | Plant response rating, Soybean (soybean (Glycine max); 16 g ai/ha, 0 to 100 scale) | Plant response rating, Soybean (soybean (Glycine max); [12]) | Bermudagrass plant response rating (0 to 100 scale) [5, 11] | Plant response rating, Kochia (kochia (Kochia scoparia); [13]) | Plant response rating, Morningglory [6, 13]
35: Plant response rating, Kochia (kochia (Kochia scoparia); [12])
95: Plant response rating, Cocklebur [2, 12] | Soybean plant response rating (0 to 100 scale) (soybean (Glycine max); [11])
70: Morningglory plant response rating (0 to 100 scale) [6, 11] | Plant response rating, Morningglory [6, 12]
5: Plant response rating, Johnsongrass [1, 12] | Plant response rating, Morningglory ([6]; 16 g ai/ha, 0 to 100 scale) | Plant response rating, Windgrass [7, 13]
60: Plant response rating, Bermudagrass ([5]; 16 g ai/ha, 0 to 100 scale) | Kochia plant response rating (0 to 100 scale) (kochia (Kochia scoparia); [11])
65: Plant response rating, Foxtail, Giant ([3]; 16 g ai/ha, 0 to 100 scale) | Plant response rating, Bermudagrass [5, 12] | Plant response rating, Chickweed [8, 12]
10: Corn plant response rating (0 to 100 scale) (corn (Zea mays); [11])
25: Johnsongrass plant response rating (0 to 100 scale) [1, 11]
100: Plant response rating, Cocklebur [2, 13]
50: Plant response rating, Johnsongrass [1, 13]
0: Plant response rating, Johnsongrass ([1]; 16 g ai/ha, 0 to 100 scale) | Plant response rating, Blackgrass ([4]; 16 g ai/ha, 0 to 100 scale) | Blackgrass plant response rating (0 to 100 scale) [4, 11] | Plant response rating, Blackgrass [4, 12] | Plant response rating, Blackgrass [4, 13] | Plant response rating, Oat, Wild (wild oat (Avena fatua); 16 g ai/ha, 0 to 100 scale) | Oat, Wild plant response rating (0 to 100 scale) (wild oat (Avena fatua); [11]) | Plant response rating, Oat, Wild (wild oat (Avena fatua); [12]) | Plant response rating, Oat, Wild (wild oat (Avena fatua); [13]) | Plant response rating, Corn (corn (Zea mays); 16 g ai/ha, 0 to 100 scale) | Plant response rating, Corn (corn (Zea mays); [12]) | Plant response rating, Windgrass ([7]; 16 g ai/ha, 0 to 100 scale) | Windgrass plant response rating (0 to 100 scale) [7, 11] | Plant response rating, Windgrass [7, 12] | Plant response rating, Canarygrass ([9]; 16 g ai/ha, 0 to 100 scale) | Canarygrass plant response rating (0 to 100 scale) [9, 11] | Plant response rating, Canarygrass [9, 12] | Plant response rating, Canarygrass [9, 13] | Plant response rating, Barley ([10]; 16 g ai/ha, 0 to 100 scale) | Barley plant response rating (0 to 100 scale) [10, 11] | Plant response rating, Barley [10, 12] | Plant response rating, Barley [10, 13]
20: Plant response rating, Kochia (kochia (Kochia scoparia); 16 g ai/ha, 0 to 100 scale) | Plant response rating, Corn (corn (Zea mays); [13])
80: Plant response rating, Cocklebur ([2]; 16 g ai/ha, 0 to 100 scale) | Plant response rating, Foxtail, Giant [3, 13] | Chickweed plant response rating (0 to 100 scale) [8, 11]
98: Cocklebur plant response rating (0 to 100 scale) [2, 11] | Plant response rating, Soybean (soybean (Glycine max); [13])
85: Plant response rating, Bermudagrass [5, 13]
45: Plant response rating, Chickweed ([8]; 16 g ai/ha, 0 to 100 scale)
